“And” between values parts separate entries of the source, which are not always exact repeats. Identical values can stand only once.
Legend:
NCI-H929 cells [1] = assay: BCMA expression by flow cytometry after GSI incubation; format: cell-based; conditions: 1 μM DAPT, 24 hrs, vs without
Molp-8 cells [2] = assay: as above; format: cell-based; conditions: 1 μM DAPT, 24 hrs, vs without
Molp-8 cells [3] = assay: FcγRIII signaling surrogate assay (Promega ADCC reporter bioassay, CD16A-Jurkat effector cells); format: cell-based; conditions: antibody dose titrations +/- GSI (DAPT), 6:1 effector-to-target ratio, overnight
Experimental: (§1) NCI-H929 or Molp-8 MM target cells were incubated with and without 1 μM DAPT for 24 hrs. […] FcγRIII signaling was determined using a surrogate assay as manufacturer describes (Promega ADCC reporter bioassay cat #G9302). Cells were bound with antibody dose titrations+/−GSI for 30 minutes at 37° C. CD16A-Jurkat effector cells were then added with a 6:1 effector-to-target cell ratio. After an overnight incubation, the assay was developed with Bio-Glo and relative luminescence units (RLU) were measured on an Envision plate reader. […] Enhanced signaling is the first step in the primary mechanism of action of SEA-BCMA. This signaling can translate to increased anti-MM cell lysis through ADCC.

NCI-H929 cells [4] = assay: as above; format: cell-based; conditions: antibody dose titrations +/- GSI (DAPT), 6:1 effector-to-target ratio, overnight
Experimental: as §1

[5] = system: BCMA-expressing NCI-H929 cells; assay: NF-κB p65 activity ELISA of nuclear extract (TransAM NFκB Chemi p65); format: cell-based
Experimental: The secondary mechanism of action of SEA-BCMA is to block BCMA proliferative cell signaling. Increased BCMA from GSI treatment is expected to induce increased BCMA signaling. Therefore, the block of this enhanced signaling by SEA-BCMA was tested. BCMA-expressing NCI-H929 cells were serum-starved with and without 0.2 μM Nirogacestat (purchased from SelleckChem) for 16 hrs. Cells were then bound with and without 20 μg/mL SEA-BCMA and incubated with and without 1 μg/ml recombinant human APRIL (R&D Systems) for 20 minutes at 37° C. in the presence or absence of 0.2 μM Nirogacestat. 1 μg of nuclear extract was assayed in duplicate for NF-κB p65 activity by ELISA (TransAM NFκB Chemi p65, Active Motif).

FcγRIII = FcγRIII (Homo sapiens, UniProt P08637); assay: FcγRIII binding affinity versus fucosylated anti-BCMA antibodies; conditions: in comparison to fucosylated anti-BCMA antibodies
Multiple myeloma cells [6] = assay: BCMA expression after nirogacestat incubation; format: cell-based; conditions: 0.2 μM nirogacestat, 24 hours, vs without
Excerpt: (§2) These pre-clinical data supported the combination of SEA-BCMA with nirogacestat in clinical studies.

U266 = assay: BCMA expression by flow cytometry after Nirogacestat incubation; format: cell-based; conditions: 0.2 μM Nirogacestat, 24 hrs
Multiple myeloma cells [7] = assay: ADCC with NK effector cells enriched from normal donor PBMC; format: cell-based; conditions: nirogacestat treated multiple myeloma cells combined with NK effector cells
Excerpt: as §2

Molp-8 MM target cells = assay: ADCC 51Cr release assay with donor NK cells; format: cell-based; conditions: SEA-BCMA titrations, 0.2 μM Nirogacestat vs without, NK:target 10:1, 4h, FcγRIII V/V donor
Experimental: Whether the enhanced FcγRIII signaling translated to increased lysis of MM target cells by SEA-BCMA was determined. Molp-8 MM target cells were incubated with and without 0.2 μM Nirogacestat (purchased from SelleckChem) for 24 hrs. Cells were then Na2 [^51Cr] O4 labeled and added to titrations of SEA-BCMA, or isotype antibody control. Effector cells, NK cells enriched from normal donor PBMC, were added at an effector-to-target cell ratio of 10:1 (50,000:5000). Donor NK cells were of the high affinity FcγRIII V/V genotype. The combination of antibodies, NK cells and target cells were incubated for 4h at 37° C. with and without Nirogacestat. The radioactivity released into the culture supernatant of lysed target cells was then measured and the percent specific cell lysis calculated. […] This is the primary of mechanism of action of SEA-BCMA and translates to specific enhanced anti-MM lysis. It is expected that this will translate to improvements in anti-MM activity in the clinic when SEA-BCMA is combined with GSIs.

[8] = 100 mg BID dose; cited from earlier work
patients = conditions: cited from earlier work
[9] = patients receiving nirogacestat

FcγRIII, sequence (P08637 17-254): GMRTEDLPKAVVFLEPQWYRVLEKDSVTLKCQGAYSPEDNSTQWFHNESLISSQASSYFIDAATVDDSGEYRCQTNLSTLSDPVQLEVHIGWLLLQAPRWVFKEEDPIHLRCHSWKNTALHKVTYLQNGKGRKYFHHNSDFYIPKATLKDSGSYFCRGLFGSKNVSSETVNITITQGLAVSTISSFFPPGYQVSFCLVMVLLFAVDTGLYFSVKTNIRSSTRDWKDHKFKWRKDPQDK
Experimental for patients with RRMM: This study evaluated the safety and antitumor activity of SEA-BCMA in patients with RRMM.
The monotherapy dose-escalation portion of the trial was conducted in approximately 25 patients.
Enrollment in this study occurred on a cohort-by-cohort basis. Multiple cohorts were treated at each dose level, with a maximum of 4 patients treated per cohort. Decisions on dose escalation and subsequent cohort size were made in consultation with the safety monitoring committee (SMC) after completion of each cohort. […] In addition, as a precaution, for the first 2 patients in the study there was a 72-hour observation period before the next patient can be dosed. At dose levels above Dose Level 1, a 24-hour observation period was required after the first patient received their first dose of SEA-BCMA, prior to dosing subsequent patients at that dose level. […] Patients who were considered not evaluable for DLT during Cycle 1 were replaced. […] The MTD or optimal dose was estimated based on data from all patients across all evaluated doses.
SEA-BCMA was initially administered once every 2 weeks (q2wk) in 4-week cycles at the planned doses shown in Table 2; a dosing interval of every 4 weeks (q4wk) was explored.
To further characterize the safety and antitumor activity of SEA-BCMA, an expansion cohort of up to approximately 40 patients were enrolled.
The DLT-evaluation period was the first cycle of treatment. […] In the event of a Grade 3 IRR in ≥20% of patients (i.e., 2 or more in the first 10 patients), all subsequent patients will require premedication and/or modification of infusion approach per the recommendation of the SMC.

Compound: C[C@H](NC(=O)Cc1cc(F)cc(F)c1)C(=O)N[C@H](C(=O)OC(C)(C)C)c1ccccc1 [DAPT]
- BCMA expression (NCI-H929 cells [1]): increased BCMA expression
- BCMA expression (Molp-8 cells [2]): increased BCMA expression
- FcγRIII signaling (Molp-8 cells [3]): increased FcγRIII signaling
- FcγRIII signaling (NCI-H929 cells [4]): increased FcγRIII signaling

Compound: SEA-BCMA: non-fucosylated monoclonal anti-BCMA antibody, heavy chain SEQ ID NO: 13, light chain SEQ ID NO: 15
- Block of NF-κB signaling increased by Nirogacestat ([5]; 20 μg/mL SEA-BCMA, 0.2 μM Nirogacestat, +/- 1 μg/ml APRIL): partially blocked
- FcγRIII binding affinity (FcγRIII): enhanced
- Delayed-onset infusion-related reactions (IRRs) (patients with RRMM; dose escalation cohort): no instances
- Safety profile at high doses (patients with RRMM; high doses, e.g. 800 mg or 1600 mg per dose, initial results): tolerable safety profile
- MTD in dose escalation (patients with RRMM; human, in vivo): without exceeding MTD

Compound: CCC[C@H](N[C@H]1CCc2cc(F)cc(F)c2C1)C(=O)Nc1cn(C(C)(C)CNCC(C)(C)C)cn1 [nirogacestat, (S)-2-(((S)-6,8-difluoro-1,2,3,4-tetrahydronaphthalen-2-yl)amino)-N-(1-(2-methyl-1-(neopentylamino)propan-2-yl)-1H-imidazol-4-yl)pentanamide]
- BCMA expression (Multiple myeloma cells [6]): increased BCMA expression
- BCMA expression (U266): increased BCMA expression
- ADCC (Multiple myeloma cells [7]): increased ADCC
- ADCC (percent specific cell lysis) (Molp-8 MM target cells): Increased ADCC
- NF-κB p65 signaling (RLU) ([5]; 0.2 μM Nirogacestat 16 hrs serum-starved, +/- 1 μg/ml APRIL 20 minutes): increased NF-κB signaling
- Cmin at steady-state [8]: 232 ng/mL and 471 nM
- Events of diarrhea (patients; [9]): commonly reported
- Events of skin rash (patients; [9]): reported
- Follicular cysts (patients; phase 2 study in desmoid patients conducted by the NCI (O'Sullivan Coyne, 2018)): observed

Reference: patent publication US20240343819A1, “METHODS OF TREATING MULTIPLE MYELOMA” (Seagen Inc., priority 2021, published 2024)
